Measured values reported in patent publication US20250313574A1, “SIALIC ACID DERIVATIVES AND METHODS OF USING SAME” (EISAI R&D MANAGEMENT CO., LTD., priority 2022, published 2025).

Experiments:
[1] = target: Recombinant human CD33 protein (Homo sapiens (Human), UniProt P20138); assay: CD33 competitive binding assay for HTS drug screen (fluorescent multivalent sialic acid probe)
How it was run: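 Inhibition was read as reduced retention of a fluorescent multivalent sialic acid complex (final 5 μM neutravidin, 15 μM A-375, 5 μM biotin-4-FITC) on plate-immobilized human CD33. Compound was added first, the probe followed for 30 min at room temperature in PBS with 0.2% Tween-20 and 0.5% BSA, and FITC was measured after a wash.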

[2] = target: Recombinant Human Siglec-3/CD33 protein (His-CD33) (Homo sapiens (Human), UniProt P20138); assay: Differential scanning fluorimetry (DSF) thermal shift assay; format: binding; details: thermal melt shift of 0.5 μM CD33 protein with 50 μM compound
Chain of Recombinant Human Siglec-3/CD33 protein (His-CD33) (P20138 18-259): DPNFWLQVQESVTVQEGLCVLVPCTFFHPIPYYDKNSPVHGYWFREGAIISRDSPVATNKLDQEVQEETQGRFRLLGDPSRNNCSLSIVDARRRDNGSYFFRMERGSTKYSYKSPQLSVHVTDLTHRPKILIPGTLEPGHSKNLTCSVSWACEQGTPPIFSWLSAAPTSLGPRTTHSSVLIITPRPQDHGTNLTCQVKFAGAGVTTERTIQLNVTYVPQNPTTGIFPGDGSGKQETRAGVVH

Chain of Recombinant human CD33 protein (P20138 18-259): as above

Row | Compound | EC50 [1] [nM] | DSF (dTmD) [2]
1 | CC(=O)N[C@H]1[C@H]([C@H](O)[C@H](O)CNC(=O)c2ccc(-c3ncn[nH]3)cc2)O[C@@](CCN2CCOC[C@@]23CCN(C(=O)OC(C)(C)C)C3)(C(=O)O)C[C@@H]1O [A-142] | 340 | 6.4
2 | CC(=O)N[C@H]1[C@H]([C@H](O)[C@H](O)CNC(=O)c2ccc(N3CCN(C)CC3)cc2)O[C@@](CCN2CCOC[C@@]23CCN(C(=O)OC(C)(C)C)C3)(C(=O)O)C[C@@H]1O [A-143] | 334 | 7.8
3 | CC(=O)N[C@H]1[C@H]([C@H](O)[C@H](O)CNC(=O)c2ccc(C(F)(F)F)c(C)c2)O[C@@](CCN2CCOC[C@@]23CCN(C(=O)OC(C)(C)C)C3)(C(=O)O)C[C@@H]1O [A-144] | 230 | 11.0
4 | CC(=O)N[C@H]1[C@H]([C@H](O)[C@H](O)CNC(=O)c2ccc(C)c(C(F)(F)F)c2)O[C@@](CCN2CCOC[C@@]23CCN(C(=O)OC(C)(C)C)C3)(C(=O)O)C[C@@H]1O [A-145] | 610 | 9.6
5 | CC(=O)N[C@H]1[C@H]([C@H](O)[C@H](O)CNC(=O)c2ccc(C(F)(F)F)c(O)c2)O[C@@](CCN2CCOC[C@@]23CCN(C(=O)OC(C)(C)C)C3)(C(=O)O)C[C@@H]1O [A-146] | 262 | 10.6
6 | CC(=O)N[C@H]1[C@H]([C@H](O)[C@H](O)CNC(=O)c2ccc(O)c(C(F)(F)F)c2)O[C@@](CCN2CCOC[C@@]23CCN(C(=O)OC(C)(C)C)C3)(C(=O)O)C[C@@H]1O [A-147] | 127 | 10.6
7 | COc1cc(C(=O)NC[C@@H](O)[C@@H](O)[C@@H]2O[C@@](CCN3CCOC[C@@]34CCN(C(=O)OC(C)(C)C)C4)(C(=O)O)C[C@H](O)[C@H]2NC(C)=O)cc(OC)c1OC [A-148] | 197 | 9.9
8 | CC(=O)N[C@H]1[C@H]([C@H](O)[C@H](O)CNC(=O)c2ccc(C)c(F)c2)O[C@@](CCN2CCOC[C@@]23CCN(C(=O)OC(C)(C)C)C3)(C(=O)O)C[C@@H]1O [A-149] | 133 | 10.7
9 | CC(=O)N[C@H]1[C@H]([C@H](O)[C@H](O)CNC(=O)c2ccc3c(c2)N(C)C(=O)CO3)O[C@@](CCN2CCOC[C@@]23CCN(C(=O)OC(C)(C)C)C3)(C(=O)O)C[C@@H]1O [A-150] | 219 | 9.6
10 | CC(=O)N[C@H]1[C@H]([C@H](O)[C@H](O)CNC(=O)c2ccc3cn[nH]c3c2)O[C@@](CCN2CCOC[C@@]23CCN(C(=O)OC(C)(C)C)C3)(C(=O)O)C[C@@H]1O [A-151] | 206 | 8.9
11 | CC(=O)N[C@H]1[C@H]([C@H](O)[C@H](O)CNC(=O)c2ccc(O)c(NC=O)c2)O[C@@](CCN2CCOC[C@@]23CCN(C(=O)OC(C)(C)C)C3)(C(=O)O)C[C@@H]1O [A-152] | 510 | 7.4
12 | CC(=O)N[C@H]1[C@H]([C@H](O)[C@H](O)CNC(=O)c2ccc3nsnc3c2)O[C@@](CCN2CCOC[C@@]23CCN(C(=O)OC(C)(C)C)C3)(C(=O)O)C[C@@H]1O [A-153] | 196 | 10.1
13 | CC(=O)N[C@H]1[C@H]([C@H](O)[C@H](O)CNC(=O)c2cc(C)n(C)n2)O[C@@](CCN2CCOC[C@@]23CCN(C(=O)OC(C)(C)C)C3)(C(=O)O)C[C@@H]1O [A-154] | 137 | 9.3
14 | CCc1cccc(C(=O)NC[C@@H](O)[C@@H](O)[C@@H]2O[C@@](CCN3CCOC[C@@]34CCN(C(=O)OC(C)(C)C)C4)(C(=O)O)C[C@H](O)[C@H]2NC(C)=O)c1 [A-155] | 200 | 10.1
15 | CC(=O)N[C@H]1[C@H]([C@H](O)[C@H](O)CNC(=O)c2cc(C)[nH]n2)O[C@@](CCN2CCOC[C@@]23CCN(C(=O)OC(C)(C)C)C3)(C(=O)O)C[C@@H]1O [A-156] | 138 | 8.9
16 | CC(=O)N[C@H]1[C@H]([C@H](O)[C@H](O)CNC(=O)c2cc(Cl)[nH]n2)O[C@@](CCN2CCOC[C@@]23CCN(C(=O)OC(C)(C)C)C3)(C(=O)O)C[C@@H]1O [A-157] | 80 | 10.3
17 | CC(=O)N[C@H]1[C@H]([C@H](O)[C@H](O)CNC(=O)c2coc(C)c2)O[C@@](CCN2CCOC[C@@]23CCN(C(=O)OC(C)(C)C)C3)(C(=O)O)C[C@@H]1O [A-158] | 133 | 10.4
18 | CC(=O)N[C@H]1[C@H]([C@H](O)[C@H](O)CNC(=O)c2cc(Cl)c(F)c(Cl)c2)O[C@@](CCN2CCOC[C@@]23CCN(C(=O)OC(C)(C)C)C3)(C(=O)O)C[C@@H]1O [A-159] | 238 | 11.4
19 | CC(=O)N[C@H]1[C@H]([C@H](O)[C@H](O)CNC(=O)c2cc(C)oc2C(F)(F)F)O[C@@](CCN2CCOC[C@@]23CCN(C(=O)OC(C)(C)C)C3)(C(=O)O)C[C@@H]1O [A-160] | 680 | 8.0
20 | CC(=O)N[C@H]1[C@H]([C@H](O)[C@H](O)CNC(=O)c2cn[nH]c2)O[C@@](CCN2CCOC[C@@]23CCN(C(=O)OC(C)(C)C)C3)(C(=O)O)C[C@@H]1O [A-161] | 1080 | 5.9
21 | CCC/C(C)=C/C(=O)NC[C@@H](O)[C@@H](O)[C@@H]1O[C@@](CCN2CCOC[C@@]23CCN(C(=O)OC(C)(C)C)C3)(C(=O)O)C[C@H](O)[C@H]1NC(C)=O [A-162] | 4210 | 4.8
22 | C/C=C/C=C/C(=O)NC[C@@H](O)[C@@H](O)[C@@H]1O[C@@](CCN2CCOC[C@@]23CCN(C(=O)OC(C)(C)C)C3)(C(=O)O)C[C@H](O)[C@H]1NC(C)=O [A-163] | 700 | 5.7
23 | CNC(=O)c1c(C)cc(C(=O)NC[C@@H](O)[C@@H](O)[C@@H]2O[C@@](CCN3CCOC[C@@]34CCN(C(=O)OC(C)(C)C)C4)(C(=O)O)C[C@H](O)[C@H]2NC(C)=O)cc1C [A-164] | 1560 | 5.3
24 | COc1cc(C(=O)NC[C@@H](O)[C@@H](O)[C@@H]2O[C@@](CCN3CCOC[C@@]34CCN(C(=O)OC(C)(C)C)C4)(C(=O)O)C[C@H](O)[C@H]2NC(C)=O)ccc1C#N [A-165] | 1140 | 5.7
25 | CC(=O)N[C@H]1[C@H]([C@H](O)[C@H](O)CNC(=O)c2cc(F)c(C(F)(F)F)c(F)c2)O[C@@](CCN2CCOC[C@@]23CCN(C(=O)OC(C)(C)C)C3)(C(=O)O)C[C@@H]1O [A-166] | 4000 | 6.9

Second part, the molecule after the results:

Row | EC50 [1] [nM] | DSF (dTmD) [2] | Compound
26 | 3340 | 7.9 | CC(=O)N[C@H]1[C@H]([C@H](O)[C@H](O)CNC(=O)c2ccc(C(F)(F)F)c(C(F)(F)F)c2)O[C@@](CCN2CCOC[C@@]23CCN(C(=O)OC(C)(C)C)C3)(C(=O)O)C[C@@H]1O [A-167]
27 | 1970 | 8.3 | CC(=O)N[C@H]1[C@H]([C@H](O)[C@H](O)CNC(=O)c2cc(C(F)(F)F)cc(C(F)(F)F)c2)O[C@@](CCN2CCOC[C@@]23CCN(C(=O)OC(C)(C)C)C3)(C(=O)O)C[C@@H]1O [A-168]
28 | 4720 | 6.2 | CC(=O)N[C@H]1[C@H]([C@H](O)[C@H](O)CNC(=O)c2cccc(SC(F)(F)F)c2)O[C@@](CCN2CCOC[C@@]23CCN(C(=O)OC(C)(C)C)C3)(C(=O)O)C[C@@H]1O [A-169]
29 | 3870 | 6.0 | CC(=O)N[C@H]1[C@H]([C@H](O)[C@H](O)CNC(=O)c2ccc(=O)n(C)c2)O[C@@](CCN2CCOC[C@@]23CCN(C(=O)OC(C)(C)C)C3)(C(=O)O)C[C@@H]1O [A-170]
30 | 10300 | 3.6 | CC(=O)N[C@H]1[C@H]([C@H](O)[C@H](O)CNC(=O)c2ccc(=O)[nH]c2)O[C@@](CCN2CCOC[C@@]23CCN(C(=O)OC(C)(C)C)C3)(C(=O)O)C[C@@H]1O [A-171]
31 | 820 | 7.6 | CC(=O)N[C@H]1[C@H]([C@H](O)[C@H](O)CNC(=O)c2cc(Br)ccc2F)O[C@@](CCN2CCOC[C@@]23CCN(C(=O)OC(C)(C)C)C3)(C(=O)O)C[C@@H]1O [A-172]
32 | 1170 | 6.6 | CC(=O)N[C@H]1[C@H]([C@H](O)[C@H](O)CNC(=O)c2cn(C)nc2C(F)(F)F)O[C@@](CCN2CCOC[C@@]23CCN(C(=O)OC(C)(C)C)C3)(C(=O)O)C[C@@H]1O [A-174]
33 | 4110 | 4.6 | CC(=O)N[C@H]1[C@H]([C@H](O)[C@H](O)CNC(=O)c2c[nH]nc2C(F)(F)F)O[C@@](CCN2CCOC[C@@]23CCN(C(=O)OC(C)(C)C)C3)(C(=O)O)C[C@@H]1O [A-175]
34 | 670 | 7.5 | CC(=O)N[C@H]1[C@H]([C@H](O)[C@H](O)CNC(=O)c2cnn(C)c2)O[C@@](CCN2CCOC[C@@]23CCN(C(=O)OC(C)(C)C)C3)(C(=O)O)C[C@@H]1O [A-177]
35 | 146 | 9.5 | CC(=O)N[C@H]1[C@H]([C@H](O)[C@H](O)CNC(=O)c2ccc3[nH]nnc3c2)O[C@@](CCN2CCOC[C@@]23CCN(C(=O)OC(C)(C)C)C3)(C(=O)O)C[C@@H]1O [A-178]
36 | 217 | 7.7 | CC(=O)N[C@H]1[C@H]([C@H](O)[C@H](O)CNC(=O)c2cc(-c3csc(C)n3)on2)O[C@@](CCN2CCOC[C@@]23CCN(C(=O)OC(C)(C)C)C3)(C(=O)O)C[C@@H]1O [A-179]
37 | 74 | 10.9 | CC(=O)N[C@H]1[C@H]([C@H](O)[C@H](O)CNC(=O)c2ccc(C)c(C)c2)O[C@@](CCN2CCOC[C@@]23CCN(C(=O)OC(C)(C)C)C3)(C(=O)O)C[C@@H]1O [A-180]
38 | 70 | 10.9 | CC(=O)N[C@H]1[C@H]([C@H](O)[C@H](O)CNC(=O)c2cccc(C)c2)O[C@@](CCN2CCOC[C@@]23CCN(C(=O)OC(C)(C)C)C3)(C(=O)O)C[C@@H]1O [A-181]
